The target of this assay is T1, phosphatase ABI1 via the co-regulator RCAR11/PYR1 (Arabidopsis thaliana, UniProt O49686+P49597).
T1 sequence (O49686 1-191): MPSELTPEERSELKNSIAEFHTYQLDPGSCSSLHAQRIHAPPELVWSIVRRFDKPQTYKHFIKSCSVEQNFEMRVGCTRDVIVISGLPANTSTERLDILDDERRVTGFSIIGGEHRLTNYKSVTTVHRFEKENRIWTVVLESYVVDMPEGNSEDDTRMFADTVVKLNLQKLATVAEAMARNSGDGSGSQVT
T1 sequence (P49597 1-434): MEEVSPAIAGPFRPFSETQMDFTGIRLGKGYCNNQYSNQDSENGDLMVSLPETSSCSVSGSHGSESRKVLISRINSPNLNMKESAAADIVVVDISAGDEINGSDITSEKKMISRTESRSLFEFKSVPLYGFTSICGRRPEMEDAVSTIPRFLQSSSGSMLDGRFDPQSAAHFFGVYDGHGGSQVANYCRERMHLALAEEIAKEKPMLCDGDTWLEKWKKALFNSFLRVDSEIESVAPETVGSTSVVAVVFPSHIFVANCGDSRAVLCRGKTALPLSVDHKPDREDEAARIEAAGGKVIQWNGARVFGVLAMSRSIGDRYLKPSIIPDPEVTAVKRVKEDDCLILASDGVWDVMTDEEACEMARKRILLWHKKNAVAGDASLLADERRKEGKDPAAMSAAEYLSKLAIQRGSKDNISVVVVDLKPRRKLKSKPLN
Put plainly: In vitro inhibition of the phosphatase ABI1 via the co-regulator RCAR11/PYR1, MUP dephosphorylation. It is filed as biochemical. Set-up: dose or concentration left out as unconfirmed. The note with it: in a solution of DMSO and water; fluorescence at 460 nm. The text has this:
Effects of the phytohormone abscisic acid (ABA) on the behavior of plants under abiotic stress and the mechanism of action of ABA are described in the literature (cf. Abrams et al., WO97/23441, Park et al. Science, 2009, 324, 1068; Grill et al. Science, 2009, 324, 1064; Tanokura et al. Biophysics, 2011, 7, 123; Schroeder et al. Plant J. 2010, 61, 290). Therefore, it is possible with the aid of a suitable in vitro test system to derive a correlation between the action of ABA and the stress response of a plant under abiotic stress. In the event of water deficiency (drought stress), plants form the phytohormone abscisic acid (ABA). This binds, along with a co-regulator (Regulatory Component of ABA-Receptor=RCAR according to Grill et al. Science, 2009, 324, 1064 or PYR/PYL according to Cutler et al. Science, 2009, 324, 1068), to a phosphatase (e.g. ABI1, a type 2C protein phosphatase, also abbreviated to PP2C) and inhibits its activity. As a result, a “downstream” kinase (e.g. SnRK2) is no longer dephosphorylated. This kinase, which is thus active, via phosphorylation of transcription factors (e.g. AREB/ABF, cf. Yoshida et al., 2010, 61, 672), switches on a genetic protection program to increase drought stress tolerance. The assay described hereinafter utilizes the inhibition of the phosphatase ABI1 via the co-regulator RCAR11/PYR1 aus Arabidopsis thaliana. For the determination of activity, the dephosphorylation of 4-methylumbelliferyl phosphate (MUP) was measured at 460 nm. The in vitro assay was conducted in Greiner 384-well PS microplates F-well, using two controls: a) 0.5% dimethyl sulfoxide (DMSO) and b) 5 μM abscisic acid (ABA). The assay described here was generally conducted with substance concentrations of the appropriate chemical test substances in a concentration range of 0.1 μM to 100 μM in a solution of DMSO and water. The substance solution thus obtained, if necessary, was stirred with esterase from porcine liver (EC 3.1.1.1) at room temperature for 3 h and centrifuged at 4000 rpm for 30 min. A total volume of 45 μl was introduced into each cavity of the microplate, having the following composition: • 1) 5 μl of substance solution, i.e. a) DMSO 5% or b) abscisic acid solution or c) the corresponding example compound of the general formula (I) dissolved in 5% DMSO. • 2) 20 μl of enzyme buffer mix, composed of a) 40% by vol. of enzyme buffer (10 mL contain equal proportions by volume of 500 mM Tris-HCl pH 8, 500 mM NaCl, 3.33 mM MnCl2, 40 mM dithiothreitol (DTT)), b) 4% by vol. of ABI1 dilution (protein stock solution was diluted so as to give, after addition, a final concentration in the assay of 0.15 μg ABI1/well), c) 4% by vol. of RCAR11 dilution (enzyme stock was diluted so as to give, on addition of the dilution to the enzyme buffer mix, a final concentration in the assay of 0.30 μg enzyme/well), d) 5% by vol. of Tween20 (1%), e) 47% by vol. H2O bi-dist. • 3) 20 μl of substrate mix, composed of a) 10% by vol. of 500 mM Tris-HCl pH8, b) 10% by vol. of 500 mM NaCl, c) 10% by vol. of 3.33 mM MnCl2, d) 5% by vol. of 25 mM MUP, 5% by vol. of Tween20 (1%), 60% by vol. of H2O bi-dist.
Enzyme buffer mix and substrate mix were made up 5 minutes prior to the addition and warmed to a temperature of 35° C. On completion of pipetting of all the solutions and on completion of mixing, the plate was incubated at 35° C. for 20 minutes. Finally, a relative fluorescence measurement was made at 35° C. with a BMG Labtech “POLARstar Optima” microplate reader using a 340/10 nm excitation filter and a 460 nm emission filter. The efficacy of the compounds of the general formula (I) is reported in the table which follows using abscisic acid […] as comparative substance (No. 37) according to the following classification: ++++ (inhibition≧90%), +++ (90%>inhibition≧70%), ++ (70%>inhibition≧50%), + (50%>inhibition≧30%). […]
As to `COC(=O)CCN1C(=O)CCc2cc(NS(=O)(=O)Cc3ccc([N+](=O)[O-])cc3)ccc21` [A51-175], the ABI1 inhibition entry is “+++ (90%>inhibition≧70%)”. With `CCOCCN1C(=O)CCc2cc(NS(=O)(=O)Cc3ccc(C#N)cc3)ccc21` [A39-181], the ABI1 inhibition result was “+++ (90%>inhibition≧70%)”. The value for `O=C1CCc2cc(NS(=O)(=O)Cc3ccc(Cl)cc3)ccc2N1CC(F)(F)F` [A2-165] was “++++ (inhibition≧90%)”. The entry for `O=C1CCc2cc(NS(=O)(=O)Cc3ccc(Cl)cc3)ccc2N1CC(F)F` [A1-165] is “++++ (inhibition≧90%)”; for `O=C1CCc2cc(NS(=O)(=O)Cc3ccc(C(F)(F)F)cc3)ccc2N1CC(F)F` [A1-178] it is “++++ (inhibition≧90%)”; for `O=C1CCc2cc(NS(=O)(=O)Cc3ccc(Cl)cc3)ccc2N1CCC(F)(F)F` [A7-165] it is “++++ (inhibition≧90%)”. The value for `N#Cc1ccc(CS(=O)(=O)Nc2ccc3c(c2)CCC(=O)N3CC(F)(F)C(F)(F)F)cc1` [A10-181] was “++++ (inhibition≧90%)”; that for `O=C1CCc2cc(NS(=O)(=O)Cc3cccc(Br)c3)ccc2N1CC(F)F` [A1-173] was “++ (70%>inhibition≧50%)”; that for `CC(C)(C)c1ccc(CS(=O)(=O)Nc2ccc3c(c2)CCC(=O)N3CC2CCC2)cc1` [A21-332] was “++++ (inhibition≧90%)”. `O=C1CCc2cc(NS(=O)(=O)Cc3ccc(Cl)cc3)ccc2N1CC1CC1` [A19-165]: the ABI1 inhibition result is on record as “++++ (inhibition≧90%)”. The entry for `O=C1CCc2cc(NS(=O)(=O)Cc3cccc(F)c3)ccc2N1CC1CCC1` [A21-159] is “++++ (inhibition≧90%)”.

Take `N#Cc1ccc(CS(=O)(=O)Nc2ccc3c(c2)CCC(=O)N3CC2CC2(Cl)Cl)cc1` (stereo not shown) [A32-181]: the ABI1 inhibition result was “+++ (90%>inhibition≧70%)”. The value for `COC(=O)CN1C(=O)CCc2cc(NS(=O)(=O)Cc3cccc(Cl)c3)ccc21` [A50-166] was “++ (70%>inhibition≧50%)”; that for `CCc1ccc(CS(=O)(=O)Nc2ccc3c(c2)CCC(=O)N3CC2CCC2)cc1` [A21-325] was “++++ (inhibition≧90%)”.

For `COC(=O)CN1C(=O)CCc2cc(NS(=O)(=O)CCc3ccc(Cl)cc3)ccc21` [A50-291], the ABI1 inhibition result is “++ (70%>inhibition≧50%)”.

Turning to `O=C1CCc2cc(NS(=O)(=O)Cc3ccc(C(F)(F)F)cc3)ccc2N1CC1CC1(Cl)Cl` (stereo not shown) [A32-178, N-[1-(2′,2′-Dichlorocyclopropylmethyl)-2-oxo-1,2,3,4-tetrahydroquinolin-6-yl]-1-(4-trifluoromethylphenyl)methanesulfonamide], the ABI1 inhibition result is on record as “++ (70%>inhibition≧50%)”. Consider `O=C1CCc2cc(NS(=O)(=O)Cc3ccc(F)cc3)ccc2N1CC(F)(F)F` [A2-158], for which the ABI1 inhibition result was “++++ (inhibition≧90%)”.

On to `CC1=CC(=O)CC(C)(C)[C@@]1(O)/C=C/C(C)=C\C(=O)O` [abscisic acid, reference compound], for which the ABI1 inhibition result is given as “++++ (inhibition≧90%)”. The value for `N#CCN1C(=O)CCc2cc(NS(=O)(=O)Cc3ccc(C(F)(F)F)cc3)ccc21` [A16-178] was “++ (70%>inhibition≧50%)”; that for `Cc1ccc(S(=O)(=O)Nc2ccc3c(c2)C2(CCC2)CC(=O)N3CC2CC2)cc1` [J3-50, 4-Methyl-N-[1′-(cyclopropylmethyl)-2′-oxo-2′,3′-dihydro-1′H-spiro[cyclobutyl-1,4′-quinolin]-6′-yl]phenylsulfonamide] was “+ (50%>inhibition≧30%)”; that for `COC(=O)CCN1C(=O)CCc2cc(NS(=O)(=O)Cc3cccc(Br)c3)ccc21` [A51-173] was “++ (70%>inhibition≧50%)”. The value for `COC(=O)CCN1C(=O)CCc2cc(NS(=O)(=O)Cc3ccccc3)ccc21` [A51-151] was “+++ (90%>inhibition≧70%)”; that for `Cc1cccc(CS(=O)(=O)Nc2ccc3c(c2)CCC(=O)N3CC2CC2)c1` [A19-153, N-[1-(Cyclopropylmethyl)-2-oxo-1,2,3,4-tetrahydroquinolin-6-yl]-1-(3-methylphenyl)methanesulfonamide] was “+++ (90%>inhibition≧70%)”; that for `CCOCCN1C(=O)CCc2cc(NS(=O)(=O)Cc3ccc(C)cc3)ccc21` [A39-152] was “++++ (inhibition≧90%)”.

For `COCN1C(=O)CCc2cc(NS(=O)(=O)Cc3ccc(Cl)cc3)ccc21` [A49-165], the ABI1 inhibition entry was “++++ (inhibition≧90%)”. The entry for `N#Cc1ccc(CS(=O)(=O)Nc2ccc3c(c2)CCC(=O)N3CC2CCCC2)cc1` [A22-181] is “+++ (90%>inhibition≧70%)”; for `O=C1CCc2cc(NS(=O)(=O)Cc3ccc(Cl)cc3)ccc2N1CC1CCC1` [A21-165] it is “++++ (inhibition≧90%)”. The entry for `COC(=O)CN1C(=O)CCc2cc(NS(=O)(=O)Cc3ccc(C#N)cc3)ccc21` [A50-181] is “+++ (90%>inhibition≧70%)”; for `CCc1ccc(S(=O)(=O)Nc2ccc3c(c2)CCC(=O)N3CC2CC2)cc1` [A19-601] it is “+++ (90%>inhibition≧70%)”.

`O=C1CCc2cc(NS(=O)(=O)Cc3ccccc3)ccc2N1CC(F)(F)F` [A2-151]: the ABI1 inhibition entry is “++++ (inhibition≧90%)”. The entry for `COC(=O)CCN1C(=O)CCc2cc(NS(=O)(=O)Cc3cccc(C(F)(F)F)c3)ccc21` [A51-179] is “++ (70%>inhibition≧50%)”. In the case of `O=C1CCc2cc(NS(=O)(=O)Cc3ccc([N+](=O)[O-])cc3)ccc2N1CC(F)F` [A1-175], the ABI1 inhibition result was “+++ (90%>inhibition≧70%)”. The entry for `O=C1CCc2c(cc(F)c(NS(=O)(=O)Cc3ccc(F)cc3)c2F)N1CC1CC1` [A29-158] is “++ (70%>inhibition≧50%)”; for `O=C1CCc2cc(NS(=O)(=O)Cc3ccccc3Cl)ccc2N1CC(F)(F)F` [A2-168] it is “++ (70%>inhibition≧50%)”; for `COC(=O)CCN1C(=O)CCc2cc(NS(=O)(=O)Cc3ccc(C)cc3)ccc21` [A51-152] it is “++++ (inhibition≧90%)”. Regarding `O=C1CCc2cc(NS(=O)(=O)Cc3cccc(Br)c3)ccc2N1CC(F)(F)F` [A2-173], the ABI1 inhibition result is given as “+++ (90%>inhibition≧70%)”. The entry for `Cc1ccc(CS(=O)(=O)Nc2ccc3c(c2)CCC(=O)N3CC2CC2(Cl)Cl)cc1` (stereo not shown) [A32-152] is “++ (70%>inhibition≧50%)”.

The values are drawn from patent US20170027172A1, “USE OF SUBSTITUTE OXO TETRAHYDROQUINOLINE SULFONAMIDES OR SALTS THEREOF FOR RAISING STRESS TOLERANCE OF PLANTS” (BAYER CROPSCIENCE AKTIENGESELLSCHAFT, priority 2014, published 2017).
